Earlier results, collected in patent US10201174B2, “Process for reducing contaminating Michael acceptor levels in oxycodone and other compositions” (Controlled Chemicals, Inc., priority 2005, dated 2019).

Conditions: thiol group ionisation, aqueous

| SMILES | pKSH / pK of the thiol-containing compound |
| --- | --- |
| O=C(O)c1cc(S)ccc1[N+](=O)[O-] [5-mercapto-2-nitro-benzoic acid] | 4.8 |
| O=C([O-])CS.[Na+] [sodium thioglycolate] | 10.3 |
